Results published in patent US11993574B2, “Pyrazole and imidazole compounds for inhibition of IL-17 and RORgamma” (REATA PHARMACEUTICALS, INC., priority 2018, dated 2024).

How the values were obtained:
Assay type in all cases: cell-based
[1] = target: T1, Human RAR-related Orphan Receptor Gamma (RORγ) (Homo sapiens, UniProt P51449); experiment: RORγ assay (GAL4-RORγ hybrid luciferase reporter, Indigo Biosciences); conditions: inverse-agonist activity, GAL4-RORγ reporter cells, 23 hours
T1 sequence (P51449 269-508 limits assumed): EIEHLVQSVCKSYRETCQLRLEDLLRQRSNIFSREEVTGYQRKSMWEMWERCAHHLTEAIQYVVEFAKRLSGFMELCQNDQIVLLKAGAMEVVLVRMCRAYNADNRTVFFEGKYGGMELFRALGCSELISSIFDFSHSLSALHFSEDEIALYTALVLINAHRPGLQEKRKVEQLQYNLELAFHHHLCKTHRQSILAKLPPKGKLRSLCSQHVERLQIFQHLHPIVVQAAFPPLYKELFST
Description: B. RORγ Assay and Cell Viability
The RORγ assay system was purchased from Indigo Biosciences. This nuclear receptor assay utilizes a human cell line that has been engineered to express a hybrid form of the Human RAR-related Orphan Receptor Gamma (RORγ) at high levels. The N-terminal DNA binding domain (DBD) of the native RORγ receptor was substituted with the yeast GAL4-DBD to generate the GAL4-RORγ hybrid nuclear receptor. The reporter cell line is transfected with a plasmid that encodes the beetle luciferase gene under the control of the GAL4 upstream activating sequence (UAS). GAL4 binds to the UAS and increases transcription of downstream target genes. The GAL4-RORγ hybrid is constitutively active; therefore, the principle application of this reporter assay system is to screen test compounds to quantify inverse-agonist activities against human RORγ. Because the ligand binding domain (LBD) of RORγ is identical to the LBD of RORγt, this assay is an accurate surrogate for evaluating activity of experimental ligands against RORγt. To assess the RORγ inverse-agonist activity of the test compounds, reporter cells were plated in white 96-well plates in triplicate and were treated with DMSO (vehicle) or test compound (concentration ranges of 7.8-2000 nM) at 37° C. with 5% CO2 in a humidified atmosphere for 23 hours. After this incubation, luciferin was added to the wells and luciferase activity was determined by measuring the luminescence signal using a BMG Pherastar microplate reader. Viability was determined using the Live Cell Multiplex Assay (Indigo Biosciences). Values from test compound samples were normalized to those from DMSO-treated samples. Data were analyzed using GraphPad Prism version 6.00 for Windows (GraphPad Software, La Jolla Calif. USA). A non-linear regression analysis with log (inhibitor) vs. normalized response using a variable slope was applied to fit the data and determine the IC50 values for inhibition of RORγ and cell viability. Inhibition that is closely correlated with reduced viability is considered to be non-specific.

[2] = system: Nrf2 transcription factor; experiment: AREc32 luciferase reporter assay; conditions: Homo sapiens; AREc32 cells, 19 hours; concentration required to increase GST ARE luciferase reporter activity by 2-fold; read-out: NRF2 ARE 2-Fold (EC2×)
Description: A. AREc32 Luciferase Reporter Assay
The AREc32 luciferase reporter assay allows for quantitative assessment of the endogenous activity of the Nrt2 transcription factor in cultured mammalian cells. AREc32 cells are derived from MCF-7 human breast carcinoma cells that were stably transfected with a reporter construct that contains the firefly luciferase gene located downstream of eight copies of the rat GSTA2 antioxidant response element (ARE) sequence (Wang et al., 2006; Concept Life Sciences Integrated Discovery and Development Services Ltd (CLSIDDS)). Active Nrf2 binds to the ARE sequences and increases expression of the firefly luciferase gene. To assess the Nrf2-activating potential of the test compounds, AREc32 cells were plated in black […] plates at a density of 20,000 cells per well in triplicate in DMEM+10% FBS+0.8 mg/mL Geneticin and incubated at 37° C. with 5% CO2 in a humidified atmosphere. The next day, cells were treated with DMSO (vehicle) or test compound (concentration ranges of 0.4-200 nM or 3.9-2000 nM) for 19 hours. Luciferase activity was determined using the ONE-Glo Luciferase assay (Promega). The luminescence signal was measured on a BMG Pherastar microplate reader. The mean luminescence value from test compound-treated wells was normalized to that from DMSO-treated wells and was represented as fold-induction. Data were analyzed using GraphPad Prism version 6.00 for Windows, GraphPad Software, La Jolla Calif. USA. A non-linear regression curve with log (agonist) vs. response using a variable slope was used to fit the data. Where applicable, a maximum threshold value of 50-fold over DMSO was set. EC2× values were interpolated from the curve. EC2× corresponds to the concentration of test compound required to increase GST ARE Luciferase reporter activity by 2-fold.

IL-17A = experiment: IL-17 release from differentiated primary human T-cells (IL-17A HTRF assay); conditions: primary human CD4+ T cells differentiated into Th17 cells, 45-hour incubation, IL-17A in supernatant; read-out: hIL17 IC50
Method: C. IL-17 Release from Differentiated Primary Human T-Cells and Cell Viability
Primary human cryopreserved CD4+ T Cells (Lonza) were thawed according to the manufacturer's recommendations and plated either in Lymphocyte Growth Medium-3 (LGM-3) or X-VIVO 20 media (Lonza) in 96-well tissue culture plates at a density of ˜2×10^5 cells per well, and allowed to recover for approximately 4 hours at 37° C. with 5% CO2 in a humidified atmosphere. After the recovery step, DMSO (vehicle) or test compound at doses ranging from 2 to 500 nM or 4 to 1000 nM in a three-fold dilution series was added to the cells. Three replicate wells were tested for each treatment condition. Final DMSO concentration in each well was 0.1%. Immediately after treatment, CD4+ T cells were activated by adding Dynabeads Human T-Activator CD3/CD28 (Life Technologies; bead-to-cell ratio of 1:2.5) and differentiated into Th17 cells by adding a mixture of the following cytokines: transforming growth factor-β (TGF-β, 5 ng/mL), IL-6 (20 ng/mL), IL-23 (20 ng/mL), and IL-1β (10 ng/mL). Undifferentiated control cells received only cytokine IL-2 (50 ng/mL). All human recombinant cytokines were purchased from R&D Systems. Following a 45-hour incubation at 37° C. with 5% CO2 in a humidified atmosphere, the plates were centrifuged for 3 minutes at 250×g, and half of the supernatant was transferred to anew plate to be used in the IL-17A assay (see below). Cell viability was assessed in the original plate using the CyQuant Direct Assay (Life Technologies). CyQuant reagent (an amount equal to 10% of remaining media volume) was added to the wells, and the plates were then incubated at 37° C. for 75 min. Fluorescence was read on a SpectraMax M2e spectrophotometer at 480 nm (excitation) and 535 nm (emission) wavelengths. CyQuant values from test compound samples were normalized to those from DMSO-treated samples. The concentration of IL-17A in the supernatant was measured using the Homogeneous Time-Resolved Fluorescence (HTRF) assay (Cisbio Bioassays) according to the manufacturer's protocol. The assay was performed at room temperature in low volume, solid white 384-well plates (Greiner Bio-One). Samples and standards (serially-diluted human recombinant IL-17A (0 to 5,000 pg/mL concentration range; Cisbio Bioassays) were incubated with the anti-human IL-17A antibody conjugates (the HTRF donor and acceptor pair) for 16 hours and fluorescence was measured using a Pherastar FS microplate reader (BMG Labtech) in the HTRF mode (excitation at 337 nm and emission at 665 nm and 620 nm). IL-17A levels were assessed in duplicate aliquots of supernatant from each well resulting in a total of six readings per test condition. The 665 nm/620 nm signal ratio was calculated and the concentration of IL-17A in each sample was determined by interpolation from the standard curve. The amount of IL-17A from test compound treated samples were normalized to that of the vehicle-treated samples, set to 100%. Data were analyzed using GraphPad Prism (GraphPad Software, La Jolla California USA). Concentrations of test compound were transformed by taking the logarithm of each concentration used. The IC50 values for compound-mediated reduction in IL-17A levels and cell viability were determined by non-linear regression analysis using the log(inhibitor) vs. normalized response with variable slope equation. Inhibition that is closely correlated with reduced viability is considered to be non-specific.

SMILES | IC50 [1] [nM] | EC (2-fold) [2] [µM] | IC50 (IL-17A) [nM]
C[C@H]1C(=O)C(C#N)=C[C@@]2(C)c3c(c(-c4cccnc4)nn3-c3ccc(-c4cncc(F)c4)cc3)CC[C@H]12 [T103] | 47 | 0.365 | 31
C[C@H]1C(=O)C(C#N)=C[C@@]2(C)c3c(c(-c4ccccc4)nn3-c3ccccc3F)CC[C@H]12 [T9] | 63 | 0.122 | 127
C[C@H]1C(=O)C(C#N)=C[C@@]2(C)c3c(c(-c4ccccc4F)nn3-c3nc4ccccc4[nH]3)CC[C@H]12 [T91] | > 2000 | > 2 | > 500
C[C@H]1C(=O)C(C#N)=C[C@@]2(C)c3c(c(-c4ccccc4F)nn3-c3ccc(-c4ccccc4)cc3)CC[C@H]12 [T66] | 58 | 0.128 | 19
C[C@H]1C(=O)C(C#N)=C[C@@]2(C)c3nn(-c4ccncc4)c(-c4ccc(F)cc4)c3CC[C@H]12 [T122] | 97 | 0.441 | 246
C[C@H]1C(=O)C(C#N)=C[C@@]2(C)c3c(c(-c4ccccc4F)nn3-c3ccc(N4CCOCC4)cc3)CC[C@H]12 [T85] | 50 | 0.079 | 46
C[C@H]1C(=O)C(C#N)=C[C@@]2(C)c3c(c(-c4ccccc4F)nn3-c3ccc(-c4ccncc4)cc3)CC[C@H]12 [T84] | 23 | 0.121 | 33
C[C@H]1C(=O)C(C#N)=C[C@@]2(C)c3c(c(-c4ccccc4)nn3C3CCCCC3)CC[C@H]12 [T2] | 98 | 0.66 | 83
C[C@H]1C(=O)C(C#N)=C[C@@]2(C)c3c(c(-c4ccccc4)nn3C3CCOCC3)CC[C@H]12 [T27] | 132 | 0.204 | 61
C[C@H]1C(=O)C(C#N)=C[C@@]2(C)c3c(c(-c4ccncn4)nn3-c3nc4ccccc4s3)CC[C@H]12 [T98] | 289 | 0.275 | 78
C[C@H]1C(=O)C(C#N)=C[C@@]2(C)c3nc(-c4ccc(Cl)c(Cl)c4)n(-c4cnn(C)c4)c3CC[C@H]12 [T158] | 124 | 1.09 | 240
C[C@H]1C(=O)C(C#N)=C[C@@]2(C)c3c(c(-c4ccccc4)nn3-c3ccc(-c4ccccc4F)cc3)CC[C@H]12 [T36] | 87 | 0.233 | 22
